Results: patent publication US10758501B2, “Use of histone acetyltransferase inhibitor amidoximes as anti-proliferative agents” (Texas Woman's University, priority 2017, dated 2020)
Values joined by “and” are separate entries in the source; they are usually repeats but may differ in a detail not shown here. Identical values can stand only once. Like-named read-outs stand apart in the source and are kept apart here.

Tests used:
[1] = test system: HCT-116 (colorectal carcinoma); test: MTS growth inhibition assay, HCT-116; type: cell-based, human
Protocol: In Table 1, the various compounds listed were tested for induction of death in various malignant human cell lines and were compared to the commercial HAT inhibitor garcinol (0.2-500 μM). Specifically, Table 1 describes the summary of the growth inhibitory effect (in μM) of nine novel bisamidoximes on six malignant cell lines, as measured by MTS assay. MTS assay is a colorimetric based cytotoxicity assay that determines the number of viable cells. The numbers in the table represent Growth Inhibition GI50 (±standard deviation), which is the concentration of the drug where 50% of the cells are killed. Garcinol, a known HAT inhibitor, was used as a positive control. The cell lines used were: HCT-116 (colorectal carcinoma), DU-145 (prostate carcinoma), SK-OV-3 (ovarian adenocarcinoma), HLF-a (lung epidermoid carcinoma), MCF-7 & MDA-MB-231 (breast adenocarcinoma) and NHDF (normal human dermal fibroblasts). The cells were treated with compounds JJMB 1-9 for 48 hrs (MCF-7 for 72 hrs) at various concentrations ranging from 0.2 μM to 500 μM. One-way ANOVA was performed to assess the differences between the groups. Differences in means between control and treatment groups were analyzed by post-hoc Dunnett's test, p<0.05. Data is reported as the mean ±SD, n =3. […] The compounds tested (JJMB5, JJMB6, JJMB7, and JJMB9) could efficiently kill several malignant cell-lines in concentration range of micromolars. (See Table 1). […] From these tests it is clear that the compounds affected several cells lines of the three major types of cancers: breast, lung, and colon. […]
(§1) Combination studies of bisamidoximes and cisplatin were performed on human breast cancer cell line MCF-7, human colon cancer cell line HCT-116, and murine mammary malignant cell lines measured by MTS assay. The cells were treated with novel bisamidoximes JJMB 5, 7, and 9, for 48 hours (72 hours for MCF-7), individually or in combination with cisplatin. Growth Inhibition (GI50) was measured. *—Indicates a significant difference when the drugs were used in combination with cisplatin compared to when the drugs were used individually as determined by one-way ANOVA, p≤0.05.

[2] = test system: MCF-7 (breast adenocarcinoma); test: MTS growth inhibition assay, MCF-7; type: cell-based, human
Protocol: (§2) In Table 1, the various compounds listed were tested for induction of death in various malignant human cell lines and were compared to the commercial HAT inhibitor garcinol (0.2-500 μM). Specifically, Table 1 describes the summary of the growth inhibitory effect (in μM) of nine novel bisamidoximes on six malignant cell lines, as measured by MTS assay. MTS assay is a colorimetric based cytotoxicity assay that determines the number of viable cells. The numbers in the table represent Growth Inhibition GI50 (±standard deviation), which is the concentration of the drug where 50% of the cells are killed. Garcinol, a known HAT inhibitor, was used as a positive control. The cell lines used were: HCT-116 (colorectal carcinoma), DU-145 (prostate carcinoma), SK-OV-3 (ovarian adenocarcinoma), HLF-a (lung epidermoid carcinoma), MCF-7 & MDA-MB-231 (breast adenocarcinoma) and NHDF (normal human dermal fibroblasts). The cells were treated with compounds JJMB 1-9 for 48 hrs (MCF-7 for 72 hrs) at various concentrations ranging from 0.2 μM to 500 μM. One-way ANOVA was performed to assess the differences between the groups. Differences in means between control and treatment groups were analyzed by post-hoc Dunnett's test, p<0.05. Data is reported as the mean ±SD, n =3. […] The compounds tested (JJMB5, JJMB6, JJMB7, and JJMB9) could efficiently kill several malignant cell-lines in concentration range of micromolars. (See Table 1). […] From these tests it is clear that the compounds affected several cells lines of the three major types of cancers: breast, lung, and colon.
as §1, with “studies” for “studies of bisamidoximes and cisplatin were”, “MCF-7 and” for “MCF-7,”, “HCT 116 were” for “HCT-116, and murine mammary malignant cell lines”, “combination.” for “combination with cisplatin.”, “combination” for “combination with cisplatin”
as §1

[3] = test system: HLF-a (lung epidermoid carcinoma); test: MTS growth inhibition assay, HLF-a; type: cell-based; details: Homo sapiens, 48 hrs, 0.2-500 μM, mean ±SD n=3, read-out: Growth Inhibition GI50 (±standard deviation), Lung (HLF-A)
Protocol: as §2

[4] = test system: MDA-MB-231 (breast adenocarcinoma); test: MTS growth inhibition assay, MDA-MB-231; type: cell-based; details: Homo sapiens, 48 hrs, 0.2-500 μM, mean ±SD n=3, read-out: Growth Inhibition GI50 (±standard deviation), Breast (MDA-MB-231)
Protocol: as §2

[5] = test system: DU-145 (prostate carcinoma); test: MTS growth inhibition assay, DU-145; type: cell-based; details: Homo sapiens, 48 hrs, 0.2-500 μM, mean ±SD n=3, read-out: Growth Inhibition GI50 (±standard deviation), Prostate (DU-145)
Protocol: as §2

[6] = test system: SK-OV-3 (ovarian adenocarcinoma); test: MTS growth inhibition assay, SK-OV-3; type: cell-based; details: Homo sapiens, 48 hrs, 0.2-500 μM, mean ±SD n=3, read-out: Growth Inhibition GI50 (±standard deviation), Ovarian (SKOV-3)
Protocol: as §2

[7] = MTS growth inhibition assay, NHDF; type: cell-based; details: NHDF (normal human dermal fibroblasts), 0.2-500 μM, read-out: Growth Inhibition GI50 (±standard deviation), Normal (NHDF)
Protocol: as §2

[8] = test system: murine mammary carcinoma cells 4T1; test: Growth inhibition of murine mammary cancer cell line 4T1; type: cell-based; details: Mus musculus; 4T1 cells, single drugs; read-out: growth inhibition 50% (GI50) on 4T1 cells
[9] = test system: EpH4 cells; test: Sensitivity of EpH4 cells to bisamidoximes; type: cell-based; details: in vitro cell culture
Protocol: The efficacy of killing malignant cells in mice and slowing down the tumors or eradicating them can be indicative to these compounds' efficacy in humans. To check if the bisamidoximes are potent in mice, breast cancer cells were identified that could be implanted in female mice mammary fat pads. The identified cells were tested to see if they are sensitive to bisamidoximes in vitro (in tube/cell culture).
(§3) At the next stage, we needed to determine whether the mice would tolerate the drugs, or in other words, what would be the maximum tolerated dose (MTD) of each of the bisamidoximes. The three bisamidoximes JJMB5, JJMB7, and JJMB9, as well as a control group of only the vehicle (the solvent used to dissolve the drugs) were injected intraperitoneally (IP) to mice. The protocol included injection of the desired concentration of bisamidoxime over 5 consecutive days, two days of break, and another cycle of 5 successive days of injections.

[10] = Maximum tolerated dose in mice, IP; details: mouse, in vivo, BALB/c strain, 5 consecutive days, two days break, another 5 days
Protocol: as §3

[11] = test system: TSA-induced hyperacetylation; test: Reversion of HDAC-inhibitor (TSA)-induced hyperacetylation; type: cell-based, human; details: HCT-116, listed as JJM6
Protocol: To further understand the mechanism of action of the four active compounds (JJMB5, JJMB6, JJMB7, and JJMB9), we performed several experiments that are summarized in Table 2. All the assays were performed on HCT-116 (a colorectal carcinoma), since all of the four specific potent drugs could induce death of these cells. […] Another HAT, GCN5, was not inhibited by any of the compounds. JJMB5, JJM6 and JJMB9 could reverse the activity of an HDAC inhibitor (TSA); thus the hyperacetylation induced by TSA could be reversed by these compounds.
This is another indication that the three compounds, JJMB5, JJMB6, and JJMB9 are HAT inhibitors.

[12] = test system: 4T1 breast carcinoma cells implanted in mammary fat pad; test: 4T1 mammary carcinoma tumor volume in BALB/c mice; type: in vivo, mouse; details: 4T1 in mammary fat pad, two 5-day cycles
Protocol: The bisamidoxime JJMB7 was studied to see if the compound can lower the rate of tumor growth and the number and size of metastases in mice. […] FIG. 2 depicts a graph of mammary tumor volumes in JJMB7 treated and untreated control BALB/c mice. In the experiment, six-week-old BALB/c mice were implanted with 10,000 4T1 breast carcinoma cells in the mammary fat pad (MFP). […] JJMB7 was administered for five consecutive days, followed by a two day break, and another five consecutive days of injections. Mice were weighed every day and observed for signs of pain and discomfort. Tumors were visible 7 days after implantation, and tumor dimensions were measured, and volumes were calculated until day-24, when mice were euthanized. A One-Way Repeated Measures ANOVA was performed to determine a statistical significance (p≤0.05).
The murine mammary carcinoma 4T1 cells were implanted in the mammary fat pad of BALB/c female mice (10,000 cells per mice) and a day later we started a protocol of two 5-day cycles (with 2 days break) of chemotherapy delivered IP. The amidoximes were delivered at their MTD level—JJMB5 with 0.26 mg/kg, and JJMB9 with 0.78 mg/kg. One-Way Repeated-Measure ANNOVA was performed to show the significance (p≤0.05, n=10).

[13] = Mouse Liver Microsomes stability; type: in vitro ADME; details: Mouse Liver Microsomes (FIG. 5); read-out: t1/2 in Mouse Liver Microsomes
[14] = 48 hours, individually or in combination with cisplatin, read-out: Growth Inhibition (GI50), HCT-116, cisplatin combination study
[15] = Homo sapiens, HCT-116, 48 hrs, 0.2-500 μM, mean ±SD n=3, * = highly purified, more potent batches, read-out: Growth Inhibition GI50 (±standard deviation), Colon (HCT-116)
[16] = Homo sapiens, MCF7, 72 hours, 0.2-500 μM, mean ±SD n=3, * = highly purified, more potent batches, read-out: Growth Inhibition GI50 (±standard deviation), Breast (MCF-7), 72 hours
[17] = Homo sapiens, MCF7, 72 hours, individually or in combination with cisplatin, read-out: Growth Inhibition (GI50), MCF-7, cisplatin combination study
[18] = Homo sapiens, MCF7, 72 hours, individually or in combination, read-out: Growth Inhibition (GI50), MCF-7, bisamidoxime combination study

SMILES | GI50 [1, 14] | GI50 ([2]; 72 hours, individually or in combination with cisplatin, read-out: Growth Inhibition (GI50), MCF-7, cisplatin combination study) | GI50 [1, 15] | GI50 [3] | GI50 [2, 16] | GI50 [4] | GI50 [5] | GI50 [6] | GI50 at 48 h [7] | GI50 [2, 17] | GI50 [2, 18] | GI50 [8] | sensitivity of EpH4 cells to bisamidoximes [9] | MTD [10] | Reversion of HDAC-inhibitor-induced hyperacetylation [11] | mammary carcinoma tumor volume (FIG. 2) ([12]; BALB/c mice, 1.56 mg/kg IP, until day-24) | breast cancer tumor volume (FIG. 3) ([12]; BALB/c female mice, 0.78 mg/kg IP, p≤0.05, n=10) | half-life [13]
N.N.[Cl][Pt][Cl] [Cisplatin, cisplatin, reference compound] | 68.6 µM and 73 µM and 66.3 µM | 40.8 µM and 48.5 µM | – | – | – | – | – | – | – | – | – | – | – | – | – | – | – | –
C=C(C)[C@@H](CC=C(C)C)C[C@@]12C[C@@H](CC=C(C)C)C(C)(C)[C@@](CC=C(C)C)(C(=O)C(C(=O)c3ccc(O)c(O)c3)=C1O)C2=O [Garcinol, garcinol, reference compound] | – | – | 39 ± 8 µM | 27 ± 4 µM | 55 ± 7 µM | 44 ± 4 µM | 55 ± 7 µM | 43 ± 5 µM | > 500 µM | – | – | – | – | – | – | – | – | –
Cc1ccc(/C(=N/O)NCCCN/C(=N\O)c2ccc(C)cc2)cc1 [JJMB5] | 19.3 ± 2.4 µM | – | 8.5 µM | 335 ± 4 µM | 33.2 µM | 125 ± 4 µM | > 500 µM | > 500 µM | > 500 µM | 33.2 ± 6 µM | 28.2 ± 7.1 µM | 6.3 ± 2.3 µM | highly sensitive | 0.26 mg/kg | – | – | – | –
Cc1ccc(/C(=N/O)NCCCCN/C(=N\O)c2ccc(C)cc2)cc1 [JJMB6] | – | – | 17 ± 4 µM | > 500 µM | > 500 µM | > 500 µM | > 500 µM | > 500 µM | > 500 µM | – | – | – | – | – | could reverse | – | – | –
Cc1ccc(/C(=N/O)NCCN/C(=N\O)c2ccc(C)cc2)cc1 [JJMB7] | 16.2 ± 2 µM | – | 6.2 µM | 275 ± 3 µM | > 500 µM | 85 ± 3 µM | > 500 µM | > 500 µM | > 500 µM | – | – | 14.7 ± 6.3 µM | highly sensitive | 1.56 mg/kg | – | significantly reduce | – | –
Cc1ccc(/C(=N/O)NCCCN(C)CCCN/C(=N\O)c2ccc(C)cc2)cc1 [JJMB9] | – | – | 16 µM | 40 ± 7 µM | 8.5 µM | > 500 µM | > 500 µM | > 500 µM | > 500 µM | 8.5 ± 2.5 µM | 5.3 ± 2.7 µM | 33.3 ± 2.4 µM | highly sensitive | 0.78 mg/kg | – | – | significantly reduced | 13 min
